Tests used:
[1] = Compound was evaluated for growth inhibition of WI-L2 cells.; type: functional, cell-based; conditions: Homo sapiens, WIL2
Dihydrofolate reductase = target: T1, Dihydrofolate reductase (Homo sapiens, UniProt P00374)
T1 sequence (P00374 whole entry): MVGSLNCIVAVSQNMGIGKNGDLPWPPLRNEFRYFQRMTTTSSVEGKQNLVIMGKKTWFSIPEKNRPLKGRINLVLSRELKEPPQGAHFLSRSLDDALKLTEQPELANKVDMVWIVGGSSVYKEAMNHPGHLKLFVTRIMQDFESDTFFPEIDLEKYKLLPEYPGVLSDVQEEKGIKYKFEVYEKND
Description: Inhibition of dihydrofolate reductase (DHFR) from human cells (WI-L2/M4).

L1210 = assay: Compound was evaluated for the growth inhibition of L1210 cells.; type: functional, cell-based; conditions: Mus musculus

Row | Compound | IC50 [1] [nM] | IC50 (Dihydrofolate reductase) [nM] | IC50 (L1210) [nM]
1 | Nc1nc(N)c2nc(CNc3ccc(C(=O)N[C@@H](CCC(=O)O)C(=O)O)cc3)cnc2n1 [AMINOPTERIN] | 7.1 |  | 
2 | CN(Cc1cnc2nc(N)nc(N)c2n1)c1ccc(C(=O)NC(CCC(=O)Nc2cccc(C(=O)O)c2)C(=O)O)cc1 (configuration not stated) | 2.2 | 35 | 1.6
3 | Nc1nc(N)c2nc(CNc3ccc(C(=O)NC(CCC(=O)Nc4cccc(C(=O)O)c4)C(=O)O)cc3)cnc2n1 (configuration not stated) | 6.1 | 32 | 25
